Converted amounts (≈) assume the structure as drawn. Read-outs that look alike come from different tables or passages of the source.
Assays:
Assay in all cases: Mueller-Hinton agar dilution method (MIC)
Type in all cases: cell-based
[1] = system: Klebsiella oxytoca; conditions: read-out: Minimal Inhibitory Concentration
[2] = system: Enterobacter aerogenes; conditions: Klebsiella aerogenes, read-out: Minimal Inhibitory Concentration, strain STFD-79-14
[3] = system: Acinetobacter sp.; conditions: read-out: Minimal Inhibitory Concentration
[4] = system: Salmonella (arizona); conditions: read-out: Minimal Inhibitory Concentration
[5] = system: Enterobacter cloacae
[6] = system: Staphylococcus aureus
[7] = system: Proteus morganii; conditions: Morganella morganii, read-out: Minimal Inhibitory Concentration
[8] = system: Klebsiella pneumoniae; conditions: Klebsiella pneumoniae
[9] = system: Escherichia coli; conditions: read-out: Minimal Inhibitory Concentration
[10] = system: Providencia stuartti; conditions: read-out: Minimal Inhibitory Concentration
[11] = system: Proteus rettgeri; conditions: Providencia rettgeri, read-out: Minimal Inhibitory Concentration
[12] = system: Pseudomonas aeruginosa
[13] = system: Enterococcus sp.; conditions: Enterococcus
[14] = system: Citrobacter sp.; conditions: read-out: Minimal Inhibitory Concentration
[15] = system: Micrococcus luteus; conditions: read-out: Minimal Inhibitory Concentration
Description: (§1) The results appear in Tables I, II, and III.

[16] = system: Salmonella sp.; conditions: strain SSC-79-57, Table III, read-out: Minimal Inhibitory Concentration
Description: as §1

[17] = system: Serratia marcescens; conditions: read-out: Minimal Inhibitory Concentration

`CC(=O)OCC1=C(C(=O)O)N2C(=O)[C@@H](NC(=O)Cc3cccs3)[C@H]2SC1` [II] was tested, and the MIC [1] was 2 µg/mL (≈ 5.04 µM), the MIC ([2]; Table I) was 128 µg/mL (≈ 323 µM) and the MIC ([2]; Table III) was over 128 µg/mL. It also gave an MIC [3] of over 128 µg/mL, an MIC [4] of 2 µg/mL (≈ 5.04 µM) and an MIC ([5]; read-out: Minimal Inhibitory Concentration, strain K-79-16, Table I) of over 128 µg/mL. It also gave an MIC ([5]; read-out: Minimal Inhibitory Concentration, strain K-79-16, Table III) of over 128 µg/mL, an MIC ([5]; read-out: Minimal Inhibitory Concentration, strain K-81-46, Table I) of 64 µg/mL (≈ 161 µM) and an MIC ([6]; read-out: Minimal Inhibitory Concentration, strain FU-79-19-2, Table I) of 0.5 µg/mL (≈ 1.26 µM). It also gave an MIC ([6]; read-out: Minimal Inhibitory Concentration, strain FU-79-19-2, Table III) of 0.12 µg/mL (≈ 0.303 µM), an MIC ([6]; read-out: Minimal Inhibitory Concentration, strain SSC-79-18, Table I) of 0.25 µg/mL (≈ 0.631 µM) and an MIC ([6]; read-out: Minimal Inhibitory Concentration, strain SSC-79-18, Table III) of 0.12 µg/mL (≈ 0.303 µM). For the same compound, the MIC ([6]; read-out: Minimal Inhibitory Concentration, strain SSC-80-15, Table I) was 0.5 µg/mL (≈ 1.26 µM), the MIC ([6]; read-out: Minimal Inhibitory Concentration, strain SSC-80-15, Table III) was 0.5 µg/mL (≈ 1.26 µM) and the MIC ([6]; read-out: Minimal Inhibitory Concentration, strain Smith, Table I) was 0.12 µg/mL (≈ 0.303 µM). The MIC ([6]; read-out: Minimal Inhibitory Concentration, strain Smith, Table III) was 0.03 µg/mL (≈ 0.0757 µM), the MIC [7] was over 128 µg/mL and the MIC ([8]; read-out: Minimal Inhibitory Concentration, strain AD, Table III) was 0.03 µg/mL (≈ 0.0757 µM). The MIC ([8]; read-out: Minimal Inhibitory Concentration, strain SSC-78-1, Table I) was 1 µg/mL (≈ 2.52 µM), the MIC ([8]; read-out: Minimal Inhibitory Concentration, strain SSC-78-1, Table III) was 1 µg/mL (≈ 2.52 µM) and the MIC ([8]; read-out: Minimal Inhibitory Concentration, strain STFD-79-6, Table III) was 0.5 µg/mL (≈ 1.26 µM). For the same compound, the MIC ([8]; read-out: Minimal Inhibitory Concentration, strain STFD-79-16, Table I) was 1 µg/mL (≈ 2.52 µM), the MIC ([9]; ATCC25922, strain ATCC 25922, Table III) was 2 µg/mL (≈ 5.04 µM) and the MIC ([9]; strain #311, Table I) was 4 µg/mL (≈ 10.1 µM). For the same compound, the MIC ([9]; strain #311, Table III) was 4 µg/mL (≈ 10.1 µM), the MIC ([9]; strain ESS 22-31, Table III) was at most 0.03 µg/mL and the MIC ([9]; strain K-81-14, Table I) was 64 µg/mL (≈ 161 µM). For the same compound, the MIC ([9]; strain STFD-79-20, Table I) was 4 µg/mL (≈ 10.1 µM), the MIC ([9]; strain STFD-79-20, Table III) was 2 µg/mL (≈ 5.04 µM) and the MIC [10] was over 128 µg/mL. It also gave an MIC [11] of over 128 µg/mL, an MIC ([12]; ATCC27853, read-out: Minimal Inhibitory Concentration) of over 128 µg/mL and an MIC ([12]; read-out: Minimal Inhibitory Concentration) of over 128 µg/mL. For the same compound, the MIC ([13]; read-out: Minimal Inhibitory Concentration, strain OSU-75-1, Table I) was 32 µg/mL (≈ 80.7 µM), the MIC ([13]; read-out: Minimal Inhibitory Concentration, strain OSU-75-1, Table III) was 16 µg/mL (≈ 40.4 µM) and the MIC ([13]; read-out: Minimal Inhibitory Concentration, strain SM-77-15, Table I) was 32 µg/mL (≈ 80.7 µM). The MIC ([13]; read-out: Minimal Inhibitory Concentration, strain SM-77-15, Table III) was 16 µg/mL (≈ 40.4 µM), the MIC [14] was 1 µg/mL (≈ 2.52 µM) and the MIC [15] was 0.03 µg/mL (≈ 0.0757 µM). The MIC [16] was 64 µg/mL (≈ 161 µM) and the MIC [17] was over 128 µg/mL.
